In brackets after ≈: the same amount, converted by molar mass.
Key:
HT-29 = experiment: In vitro concentration required to inhibit HT-29 cells; format: functional, cell-based; conditions: Homo sapiens
HRT-18 cell line = experiment: In vitro concentration required to inhibit HRT18 cells; format: functional, cell-based; conditions: Homo sapiens
HCT-8 = experiment: In vitro concentration required to inhibit HCT18 cells; format: functional, cell-based; conditions: Homo sapiens
MAC15A = experiment: In vitro concentration required to inhibit MAC 15 A cells; format: functional, cell-based; conditions: Mus musculus
Mus musculus = experiment: In vivo antitumor activity in murine tumors at a dose of 200 mg/Kg; format: functional
DLD-1 = experiment: In vitro concentration required to inhibit DLD1 cells; format: functional, cell-based; conditions: Homo sapiens
HCLO cell line = experiment: In vitro concentration required to inhibit HCLO cells; format: functional, cell-based; conditions: Homo sapiens
MAC26 = experiment: In vitro concentration required to inhibit MAC 26 cells; format: functional, cell-based; conditions: Mus musculus
K562 = experiment: In vitro concentration required to inhibit K562 cells; format: functional, cell-based; conditions: Homo sapiens
MAC16 = experiment: In vitro concentration required to inhibit MAC 16 cells; format: functional, cell-based; conditions: Mus musculus

IC50 (HT-29): 390 µg/mL (≈ 1390 µM) | IC50 (HRT-18 cell line): 95 µg/mL (≈ 339 µM) | IC50 (HCT-8): 245 µg/mL (≈ 874 µM) | IC50 (MAC15A): 150 µg/mL (≈ 535 µM) | IC50 (DLD-1): > 500 µg/mL | IC50 (HCLO cell line): > 500 µg/mL | IC50 (MAC26): 208 µg/mL (≈ 742 µM) | IC50 (K562): 310 µg/mL (≈ 1110 µM) | IC50 (MAC16): 180 µg/mL (≈ 642 µM)
SMILES: O=C(O)Cc1cccc2c(=O)cc(-c3ccccc3)oc12 [MITOFLAXONE]
inhibition in vivo at 200 mg/kg (Mus musculus): 83%

Source: ChEMBL document CHEMBL1127979, “Synthesis and anti-tumour activity of 6-methyl derivatives of flavone-8-acetic acid (FAA)” (Bioorg Med Chem Lett, 1994)
